For one data set, the system named is FUDR phosphorylase. As to conditions: J. Med. Chem., 13, 461 (1970); cited from earlier work.
The next data set relates to thymidine phosphorylase. To be noted: J. Med. Chem., 14, 812 (1971); cited from earlier work.
For data set [1] the following is noted: literature; cited from earlier work.
Data set [2] can be described thus: Plasma pharmacokinetics in human subjects. The format is in vivo. On the procedure:
(§1) In man, using single doses of 400 to 700 mg of 5-(m-methylphenoxy)-2-(1H)pyrimidinone, this drug had declined below the level of detectability by 2 hours post dose.
In our studies in animals and man we have never been able to isolate 5-m-tolyloxyuracil in substantially pure form. Rather we have obtained samples of urine and blood plasma from animals and man consisting of a multitude of natural components, one of which we have identified as 5-m-tolyloxyuracil by comparison of its physical properties with material prepared in substantially pure form by the synthesis described in the present application. Indeed, in samples of plasma from human subjects treated with 5-m-tolyloxy-2(1H)pyrimidinone we have only detected peak levels of 5-m-tolyloxyuracil at the very low concentration of 40 ug/ml. When we say "in substantially pure form", we mean a purity of 95% or greater.

The nature of data set [3]: Metabolism of 5-(m-methylphenoxy)-2-(1H)pyrimidinone / 5-m-tolyloxyuracil in rats (C2 radiolabel). Type of data set: in vivo.
A short description of data set [4]: Metabolism of 5-(m-methylphenoxy)-2-(1H)pyrimidinone / 5-m-tolyloxyuracil in monkeys (C2 radiolabel). The format is in vivo.
For data set [5], the system named is stress induced gastric ulceration. Description: Cold-restraint stress induced gastric ulceration (antiulcer activity). The format is in vivo, female rats. To be noted: for % incidence of lesions / Number of lesions: 3 h before stress; for Number of lesions: total in group. As to the method:
In order to test the antiulcer activity of 5-m-tolyloxyuracil, stress induced gastric ulceration was produced by immobilizing non-fasted, female rats in a supine position and placing them in a refrigerator at 12° C. for 3 hours. Experimental drugs were administered 3 hours before the initiation of the cold-restraint stress period. At the conclusion of the stress period, the rats were sacrificed, their stomachs inflated with 5 ml of water and removed. The isolated stomachs were placed in a 4 percent aqueous solution of formaldehyde to stiffen the serosal side of the inflated stomach. This procedure facilitates examination of the stomach which is accomplished by slitting the stomach along its greater curvature and noting the number and incidence of gastric lesions. Both control and experimental drug groups consisted of ten rats. A significant reduction in the number and incidence of gastric lesions characterizes antiulcer agents.
The table below compares 5-m-tolyoxyuracil (Compound A) with 5-m-tolyloxy-2-thiouracil (Compound B), Carbenoxolone-Na (Compound C), and 5-(m-methylphenoxy)-2(1H)-pyrimidinone (Compound D).
Percent incidence of lesions is defined as follows. [formula] Number of lesions is the total number of lesions in the experimental group.

The next data set has as its system gastric ulcer. To be noted: human gastric ulcer patients; cited from earlier work.
Data set [6] concerns experimentally-induced gastric ulceration. As to conditions: animals; cited from earlier work.
Data set [7] in a line: Search for other metabolic modifications of 5-(m-methylphenoxy)-2-(1H)pyrimidinone. Further details: species or system rats, monkeys and human subjects. To be noted: in vivo. On the procedure:
U.S. Pat. No. 3,922,345 discloses the method of treating peptic ulcers which comprises administering to a subject afflicted therewith a daily dose of about 0.60 to 21 mg per kg. of body weight of 5-(m-methylphenoxy)-2-(1H)-pyrimidinone. […] We have been unable to detect metabolic products resulting from (1) phenoxy ring hydroxylation, (2) oxidation of the m-methyl group or (3) ether cleavage.

Data set [8] is described as follows: Metabolic conversion in human subjects. The format is in vivo. On the procedure: as §1
Where [9] appears, read: endogenously generated 5-m-tolyloxyuracil.
Setting [10] is: rats, cold-restraint stress, doses of the table.

“Also recorded” adds a separate entry of the source. Bounds are passed on as bounds.

Consider `O=c1[nH]cc(Oc2ccccc2)c(=O)[nH]1` [5-Phenoxyuracil], for which, in the data set with FUDR phosphorylase, the “inhibition of FUDR phosphorylase” value is given as “poor activity”. Further, the “inhibition of thymidine phosphorylase” value in the data set with thymidine phosphorylase is recorded as “poor activity”.
For the molecule `O=c1[nH]cc(F)c(=O)[nH]1` [5-fluorouracil], the “metabolic conversion / degradation” value in [1] is recorded as “metabolically converted to 5,6-dihydrouracils which undergo ring opening with subsequent loss of the C2 pyrimidine carbon as carbon dioxide; also recorded: undergoes a reduction of the 5,6-double bond to give a 5,6-dihydrouracil which subsequently undergoes ring opening to an N-acetamido βalanine which then loses the C-2 pyrimidine carbon as carbon dioxide”.
For `Cc1cccc(Oc2c[nH]c(=O)[nH]c2=O)c1` [Compound A, 5-m-tolyloxyuracil], the “plasma half life compared with 5-(m-methylphenoxy)-2-(1H)pyrimidinone” value in data set [2] (human subjects) was “much longer plasma half life; also recorded: much longer plasma half-life”. Besides, the “peak plasma concentration compared with parent drug” value in data set [2] (human, endogenously generated after single 400 to 700 mg doses of 5-(m-methylphenoxy)-2-(1H)pyrimidinone) was “peak concentrations greater than that of parent drug”. For the same molecule, the “metabolic degradation (ring opening, loss of C2 as carbon dioxide)” value in data set [3] (setting [9]) and in [4] (setting [9]) was “does not undergo this metabolic degradation; also recorded: no appriciable quantities of radioactive CO2 were observed” throughout. The “% incidence of lesions” value in data set [5] (32 mg/kg ip, control 100) amounted to 56%; in data set [5] (50 mg/kg ip, control 100) it was 70%. The Number of lesions in data set [5] (32 mg/kg ip, control 58) is listed as 19; in data set [5] (50 mg/kg ip, control 58), 34. Also, the “antiulcer activity (in words)” value is “effective antiulcer agents at both doses tested since the number and incidence of lesions following drug treatment are significantly lower (P value < 0.05) than in controls” in data set [5] (setting [10]); “protects rats against ulceration” in [5] (rats, cold-restraint stress, doses of the table, listed as 5-m-tolyloxyuracil).
Consider `Cc1cccc(Oc2c[nH]c(=S)[nH]c2=O)c1` [Compound B, 5-m-tolyloxy-2-thiouracil], for which the “% incidence of lesions” value in data set [5] (10 mg/kg po, control 80) was 80%. The molecule further yielded a Number of lesions in data set [5] (10 mg/kg po, control 31) of 50. In addition, in data set [5] (setting [10]), the “antiulcer activity (in words)” value was “inactive”.
With `CC1(C(=O)O)CCC2(C)CCC3(C)C(=CC(=O)C4C5(C)CCC(OC(=O)CCC(=O)O)C(C)(C)C5CCC43C)C2C1` (stereo not shown) [Compound C, Carbenoxolone-Na], the “gastric antiulcer efficacy in clinical trials” value with gastric ulcer was “effective gastric antiulcer agent”. Further, the “protection from experimentally-induced gastric ulceration” value in data set [6] is “known to protect animals from experimentally-induced gastric ulceration”. Besides, the results for the “antiulcer activity (in words)” value in data set [5] (32 mg/kg) and in [5] (60 mg/kg) were “less active at 32 mg/kg at which dose the activity is not significant at the P = 0.05 level” and “significantly active (P < 0.05)”, respectively. Further, the “% incidence of lesions” value in data set [5] (32 mg/kg ip, control 50) stood at 40%; in data set [5] (60 mg/kg ip, control 65) it was 25%. In addition, the Number of lesions in [5] (32 mg/kg ip, control 15) came to 9; in [5] (60 mg/kg ip, control 24), 7.
As for `Cc1cccc(Oc2cnc(=O)[nH]c2)c1` [Compound D, 5-(m-methylphenoxy)-2(1H)-pyrimidinone], the “time post dose to decline below the level of detectability” value in data set [2] (human, single doses of 400 to 700 mg) was no more than 2 h. For the same molecule, the “other metabolic modifications (phenoxy ring hydroxylation, m-methyl oxidation, ether cleavage)” value in data set [7] is given as “do not occur to any detectable extent”. Also, the “metabolic conversion to 5-m-tolyloxyuracil” value in [8] is “rapidly and efficiently metabolically converted to 5-m-tolyloxyuracil”; in data set [3] it was “rapidly and efficiently metabolically converted to 5-m-tolyloxyuracil”; in data set [4], “rapidly and efficiently metabolically converted to 5-m-tolyloxyuracil”. For the same molecule, the “% incidence of lesions” value came out at 60% in [5] (10 mg/kg ip, control 90) and 40% in data set [5] (32 mg/kg ip, control 90). Further, the Number of lesions in data set [5] (10 mg/kg ip, control 42) is on record as 12; in data set [5] (32 mg/kg ip, control 34), 13. The “antiulcer activity (in words)” value in data set [5] (setting [10]) is “effective antiulcer agents at both doses tested since the number and incidence of lesions following drug treatment are significantly lower (P value < 0.05) than in controls”.

(Values after patent publication US4080454A, “5-M-Tolyloxyuracil, anti-ulcer agent” (priority 1976, dated 1978).)
